According to ChEMBL document CHEMBL4477253, “Oxazolidinone-based allosteric modulators of mGluR5: Defining molecular switches to create a pharmacological tool box” (Bioorg Med Chem Lett, 2016):
The source made the active and inactive calls. The rule behind the calls is not given here.

Tests used:
[1] = Fraction unbound in mouse serum; format: ADME, cell-free
[2] = target: T1, Metabotropic glutamate receptor 5 (Homo sapiens, UniProt P41594); experiment: Agonist activity at human mGluR5A transfected in HEK293 cells assessed as induction of calcium release by FLIPR assay; format: functional, cell-based
Target sequence in this assay (P41594 whole entry): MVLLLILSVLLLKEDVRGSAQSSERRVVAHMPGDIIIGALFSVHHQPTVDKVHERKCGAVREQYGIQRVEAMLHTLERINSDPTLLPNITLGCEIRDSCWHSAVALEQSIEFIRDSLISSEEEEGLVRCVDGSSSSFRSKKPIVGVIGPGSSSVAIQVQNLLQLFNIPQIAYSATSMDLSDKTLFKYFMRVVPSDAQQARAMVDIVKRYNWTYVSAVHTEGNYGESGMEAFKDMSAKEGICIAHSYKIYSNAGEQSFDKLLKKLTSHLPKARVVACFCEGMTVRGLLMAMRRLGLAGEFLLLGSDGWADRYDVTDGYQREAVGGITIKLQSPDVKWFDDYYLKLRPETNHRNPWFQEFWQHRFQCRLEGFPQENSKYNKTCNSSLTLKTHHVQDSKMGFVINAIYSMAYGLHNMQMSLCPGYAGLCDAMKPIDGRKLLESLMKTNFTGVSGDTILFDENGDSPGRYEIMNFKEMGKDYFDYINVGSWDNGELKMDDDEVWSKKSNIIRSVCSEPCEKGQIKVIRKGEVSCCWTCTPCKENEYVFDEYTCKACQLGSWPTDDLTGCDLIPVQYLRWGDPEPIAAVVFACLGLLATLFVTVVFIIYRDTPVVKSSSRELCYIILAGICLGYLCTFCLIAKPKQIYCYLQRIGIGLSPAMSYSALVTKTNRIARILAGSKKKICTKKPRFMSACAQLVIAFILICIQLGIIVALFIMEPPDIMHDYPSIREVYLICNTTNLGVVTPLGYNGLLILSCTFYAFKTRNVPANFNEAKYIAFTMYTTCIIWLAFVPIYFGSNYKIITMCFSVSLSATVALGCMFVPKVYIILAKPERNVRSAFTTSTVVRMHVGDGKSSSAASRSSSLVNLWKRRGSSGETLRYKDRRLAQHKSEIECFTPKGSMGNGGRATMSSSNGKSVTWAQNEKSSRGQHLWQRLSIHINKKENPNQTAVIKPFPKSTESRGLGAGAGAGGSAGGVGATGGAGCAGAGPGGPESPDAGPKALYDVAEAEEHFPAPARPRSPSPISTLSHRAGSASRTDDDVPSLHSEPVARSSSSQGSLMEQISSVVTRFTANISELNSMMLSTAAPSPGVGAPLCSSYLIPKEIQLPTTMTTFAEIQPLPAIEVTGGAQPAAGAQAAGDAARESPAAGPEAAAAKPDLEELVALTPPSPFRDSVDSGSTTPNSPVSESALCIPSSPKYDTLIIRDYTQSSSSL

[3] = Toxicity in C57BL/6 mouse assessed as induction of convulsions at 1 mg/kg, ip during 3 hrs study; format: organism-based; details: in vivo
[4] = Metabolic stability in mouse liver microsomes assessed as compound remaining after 10 mins; format: ADME, Microsome; details: read-out: Stability
[5] = Fraction unbound in human serum; format: ADME, cell-free
[6] = target: T1, Metabotropic glutamate receptor 5; experiment: Positive allosteric modulation of human mGluR5A transfected in HEK293 cells assessed as potentiation of L-glutamate-induced calcium release incubated for 10 mins by FLIPR assay; format: functional, cell-based
Target sequence in this assay (P41594 whole entry): as above

[7] = target: T1, Metabotropic glutamate receptor 5; experiment: Displacement of [3H]-MPEPy from human mGluR5A transfected in HEK293 cell membranes after 60 mins by microbeta liquid scintillation counting analysis
Target sequence in this assay (P41594 whole entry): as above

[8] = Metabolic stability in rat liver microsomes assessed as compound remaining after 10 mins; format: ADME, Microsome; details: read-out: Stability
[9] = Metabolic stability in human liver microsomes assessed as compound remaining after 10 mins; format: ADME, Microsome; details: read-out: Stability
[10] = Toxicity in C57BL/6 mouse assessed as induction of convulsions at 3 mg/kg, ip during 3 hrs study; format: organism-based; details: in vivo
[11] = target: T1, Metabotropic glutamate receptor 5; experiment: Agonist activity at human mGluR5A transfected in HEK293 cells assessed as induction of calcium release up to 3 uM by FLIPR assay; format: functional, cell-based
Target sequence in this assay (P41594 21-1212 limits assumed): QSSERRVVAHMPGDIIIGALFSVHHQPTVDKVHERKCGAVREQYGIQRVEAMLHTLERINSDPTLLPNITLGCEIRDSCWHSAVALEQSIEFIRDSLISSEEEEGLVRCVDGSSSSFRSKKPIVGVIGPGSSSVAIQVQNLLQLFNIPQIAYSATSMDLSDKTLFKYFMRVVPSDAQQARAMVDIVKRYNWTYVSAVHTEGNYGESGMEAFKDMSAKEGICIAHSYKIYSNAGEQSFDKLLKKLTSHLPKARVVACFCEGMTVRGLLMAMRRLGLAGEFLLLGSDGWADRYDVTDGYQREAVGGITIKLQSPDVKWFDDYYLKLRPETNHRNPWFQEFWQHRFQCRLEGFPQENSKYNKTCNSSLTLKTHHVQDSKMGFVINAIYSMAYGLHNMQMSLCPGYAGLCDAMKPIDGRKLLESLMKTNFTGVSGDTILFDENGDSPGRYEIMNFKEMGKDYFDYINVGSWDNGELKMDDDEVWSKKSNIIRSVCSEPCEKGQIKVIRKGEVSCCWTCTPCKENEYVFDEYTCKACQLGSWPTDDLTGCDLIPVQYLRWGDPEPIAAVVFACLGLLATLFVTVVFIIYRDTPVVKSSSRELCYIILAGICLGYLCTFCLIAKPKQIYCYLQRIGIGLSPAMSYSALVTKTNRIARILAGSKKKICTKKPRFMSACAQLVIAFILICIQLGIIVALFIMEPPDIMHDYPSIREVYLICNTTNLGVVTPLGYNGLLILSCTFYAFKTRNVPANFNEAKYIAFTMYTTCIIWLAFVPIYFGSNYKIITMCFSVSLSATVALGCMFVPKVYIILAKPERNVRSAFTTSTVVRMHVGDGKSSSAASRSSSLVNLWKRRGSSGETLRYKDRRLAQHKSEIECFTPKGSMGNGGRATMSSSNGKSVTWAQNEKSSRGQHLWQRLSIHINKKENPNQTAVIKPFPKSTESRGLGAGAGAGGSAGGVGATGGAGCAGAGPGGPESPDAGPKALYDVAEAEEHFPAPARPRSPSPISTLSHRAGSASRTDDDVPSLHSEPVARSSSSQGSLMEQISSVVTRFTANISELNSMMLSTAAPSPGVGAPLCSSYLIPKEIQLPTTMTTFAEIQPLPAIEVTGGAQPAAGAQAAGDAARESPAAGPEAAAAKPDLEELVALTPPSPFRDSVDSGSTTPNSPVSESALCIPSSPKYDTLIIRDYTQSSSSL

[12] = target: T1, Metabotropic glutamate receptor 5; experiment: Antagonist activity against human mGluR5A transfected in HEK293 cells assessed as inhibition of L-glutamate-induced calcium release up to 3 uM after 10 mins by FLIPR assay; format: functional, cell-based
Target sequence in this assay (P41594 21-1212 limits assumed): as above

[13] = Fraction unbound in rat serum; format: ADME, cell-free
[14] = Toxicity in C57BL/6 mouse assessed as induction of convulsions at 30 mg/kg, ip during 3 hrs study; format: organism-based; details: in vivo
Mus musculus [15] = experiment: Ex vivo receptor occupancy at mGluR5A in C57BL/6 mouse at 10 and 30 mg/kg; format: functional, organism-based
Mus musculus [16] = experiment: Cognitive enhancing effect in sc dosed C57BL/6 mouse assessed as time spent on exploring novel objects administered 1 hr before acquisition session followed by acquisition session for 15 mins by novel object recognition test; format: functional; details: C57BL/6, sc, read-out: MED
[17] = Drug uptake in C57BL/6 mouse plasma at 10 mg/kg, sc measured after 60 mins; format: ADME, organism-based
[18] = Ratio of drug uptake in C57BL/6 mouse brain to plasma at 10 mg/kg, sc measured after 60 mins; format: ADME, organism-based; details: read-out: BPR
[19] = Drug uptake in C57BL/6 mouse brain at 3 mg/kg, sc measured after 60 mins; format: ADME, organism-based; details: read-out: Drug uptake
[20] = Drug uptake in C57BL/6 mouse plasma at 1 mg/kg, sc measured after 60 mins; format: ADME, organism-based
[21] = Ratio of drug uptake in C57BL/6 mouse brain to plasma at 1 mg/kg, sc measured after 60 mins; format: ADME, organism-based; details: read-out: BPR
[22] = Ratio of drug uptake in C57BL/6 mouse brain to plasma at 3 mg/kg, sc measured after 60 mins; format: ADME, organism-based; details: read-out: BPR
[23] = Drug uptake in C57BL/6 mouse brain at 1 mg/kg, sc measured after 60 mins; format: ADME, organism-based; details: read-out: Drug uptake
[24] = Drug uptake in C57BL/6 mouse plasma at 3 mg/kg, sc measured after 60 mins; format: ADME, organism-based
[25] = Drug uptake in C57BL/6 mouse brain at 10 mg/kg, sc measured after 60 mins; format: ADME, organism-based; details: read-out: Drug uptake
[26] = Toxicity in C57BL/6 mouse assessed as induction of convulsions at 10 mg/kg, ip during 3 hrs study; format: organism-based; details: in vivo
[27] = Toxicity in C57BL/6 mouse assessed as induction of convulsions at 10 mg/kg, ip coadministered with (4R,5R)-5-phenyl-4-(4-(phenylethynyl)pyridin-2-yl)oxazolidin-2-one during 3 hrs study; format: organism-based; details: in vivo
[28] = target: T1, Metabotropic glutamate receptor 5; experiment: Negative allosteric modulation of human mGluR5A transfected in HEK293 cells assessed as inhibition of L-glutamate-induced calcium release after 10 mins by FLIPR assay; format: functional, cell-based
Target sequence in this assay (P41594 whole entry): as the sequence (P41594 whole entry) above

[29] = target: T1, Metabotropic glutamate receptor 5; experiment: Displacement of [3H]-MPEP from human mGluR5A transfected in HEK293 cells after 60 mins by microbeta liquid scintillation counting analysis; format: cell-based
Target sequence in this assay (P41594 whole entry): as above

Structure (SMILES) | fraction unbound [1] | EC50 [2] | fraction unbound [5] | EC50 [6] | Ki [7] | remaining at 10 min [8] | remaining at 10 min [9] | further results
O=C1N[C@H](c2cncc(C#Cc3ccccc3)c2)[C@@H](c2ccc(F)cc2)O1 | 0.009 | 504 nM | 0.004 | 0.4 nM | 1.7 nM | 92% | 81% | Activity [3]: Toxic; remaining at 10 min [4]: 80%
O=C1N[C@H](c2cncc(C#Cc3ccccc3)c2)[C@@H](c2ccc(F)cc2F)O1 |  | > 3000 nM |  | 1.2 nM | 1.4 nM |  |  | Activity [10]: Toxic
O=C1N[C@H](c2cncc(C#Cc3cccnc3)c2)[C@@H](c2ccc(F)cc2)O1 | 0.11 | 273 nM | 0.082 | 3.3 nM | 32 nM | 85% | 76% | remaining at 10 min [4]: 87%
O=C1N[C@H](c2cncc(C#Cc3ccccn3)c2)[C@@H](c2ccc(F)cc2)O1 | 0.069 | > 3000 nM | 0.064 | 25 nM | 23 nM | 100% | 97% | remaining at 10 min [4]: 89%
O=C1N[C@H](c2cncc(C#Cc3ccccc3)c2)[C@@H](c2cccc(Cl)c2)O1 |  | > 3000 nM |  | 0.9 nM | 1.8 nM |  |  | 
O=C1N[C@H](c2cncc(C#Cc3ccccc3)c2)[C@@H](c2ccccc2F)O1 |  | > 3000 nM |  | 1.5 nM | 1.9 nM |  |  | 
O=C1N[C@H](c2cncc(C#Cc3ccccc3)c2)[C@@H](c2cc(F)cc(F)c2)O1 |  | > 3000 nM |  | 5.5 nM | 1.4 nM |  |  | 
O=C1N[C@H](c2ccnc(C#Cc3ccccc3)c2)[C@@H](c2ccccc2)O1 | 0.021 |  | 0.005 | 1.5 nM | 2.1 nM |  |  | Activity [11]: inactive; inhibition [12]: inactive; fraction unbound [13]: 0.012
O=C1N[C@H](c2cncc(C#Cc3ccncc3)c2)[C@@H](c2ccc(F)cc2)O1 | 0.1 | > 3000 nM | 0.14 | 14 nM | 16 nM | 65% | 70% | remaining at 10 min [4]: 69%
O=C1N[C@H](c2cncc(C#Cc3ccccc3)c2)[C@@H](c2cc(F)ccc2F)O1 |  |  |  |  |  |  |  | Activity [14]: Non-Toxic; Activity (Mus musculus [15]): Active
O=C1N[C@H](c2cncc(C#Cc3ncccc3F)c2)[C@@H](c2ccc(F)cc2)O1 | 0.13 | > 3000 nM | 0.076 | 10 nM | 14 nM | 100% | 100% | minimal effective dose (Mus musculus [16]): 10 mg/kg; concentration at 1 h [17]: 5250 nM; Kp at 1 h [18]: 0.1 to 0.11; Activity [14]: Non-Toxic; concentration at 1 h [19]: 182 nM; concentration at 1 h [20]: 375 nM; Kp at 1 h [21]: 0.15; Kp at 1 h [22]: 0.14; remaining at 10 min [4]: 100%; concentration at 1 h [23]: 56 nM; concentration at 1 h [24]: 1430 nM; concentration at 1 h [25]: 542 nM
O=C1N[C@H](c2cncc(C#Cc3ccnc(F)c3)c2)[C@@H](c2ccc(F)cc2)O1 | 0.11 | > 3000 nM | 0.034 | 4.8 nM | 15 nM | 100% | 92% | Activity [26]: Toxic
O=C1N[C@H](c2cccc(C#Cc3ccccc3)n2)[C@@H](c2ccccc2)O1 | 0.011 |  | 0.009 | 9.4 nM | 44 nM |  |  | Activity [11]: inactive; Activity [14]: Non-Toxic; inhibition [12]: inactive; fraction unbound [13]: 0.009
O=C1N[C@H](c2cncc(C#Cc3cncc(F)c3)c2)[C@@H](c2ccc(F)cc2)O1 |  | 315 nM | 0.035 |  |  | 85% | 97% | Activity [27]: Non-Toxic; remaining at 10 min [4]: 77%; Activity [26]: Toxic
O=C1N[C@H](c2cncc(C#Cc3ccccc3)c2)[C@@H](c2ccc(F)c(F)c2)O1 |  | 50 nM |  | 0.2 nM | 2.8 nM |  |  | 
O=C1N[C@H](c2cncc(C#Cc3ccccc3)c2)[C@@H](c2c(F)cccc2F)O1 |  | > 3000 nM |  | > 3000 nM | 2.7 nM |  |  | IC50 [28]: 27 nM
O=C1N[C@H](c2cncc(C#Cc3ccccc3)c2)[C@@H](c2ccccc2)O1 | 0.047 | > 3000 nM | 0.008 | 0.7 nM | 1.4 nM |  |  | Activity [11]: inactive; Activity [14]: Non-Toxic; inhibition [12]: inactive; fraction unbound [13]: 0.007
O=C1N[C@H](c2cc(C#Cc3ccccc3)ccn2)[C@@H](c2ccccc2)O1 | 0.01 |  | 0.006 |  |  |  |  | Activity [11]: inactive; inhibition [12]: inactive; fraction unbound [13]: 0.009
O=C1N[C@H](c2cncc(C#Cc3ccccc3)c2)[C@@H](c2cccc(F)c2)O1 |  |  |  |  |  |  |  | Activity [10]: Toxic
O=C1N[C@H](c2cncc(C#Cc3ccccc3)c2)[C@@H](c2ccccc2Cl)O1 [BMS-984923] |  | > 3000 nM |  | > 3000 nM |  |  |  | 
O=C1N[C@H](c2cncc(C#Cc3ccccc3)c2)[C@@H](c2ccc(Cl)cc2)O1 |  | 333 nM |  | 0.6 nM | 2.2 nM |  |  | 
O=C1N[C@H](c2cccc(C#Cc3ccccc3)c2)[C@@H](c2ccccc2)O1 | 0.001 |  | < 0.001 | 38 nM |  |  |  | Activity [11]: inactive; Ki [29]: 8.9 nM; inhibition [12]: inactive; fraction unbound [13]: 0.001
O=C1N[C@H](c2cncc(C#Cc3ccccc3)c2)[C@@H](c2cccc(F)c2F)O1 |  | > 3000 nM |  | 4.2 nM | 1.8 nM |  |  | 
